Laboratory results published in PubChem BioAssay (NCI).
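Each compound was tested at five concentrations against cells in 96-well plates for 48 hours. Definition used: TGI = concentration required for complete inhibition of growth.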

How the values were obtained:
Assay in all cases: NCI-60 cell line screen, 48 h
U251 CNS = test system: U251 CNS
M14 melanoma = test system: M14 melanoma
HCT-15 colon = test system: HCT-15 colon
MOLT-4 leukemia = test system: MOLT-4 leukemia
RXF 393 renal = test system: RXF 393 renal
XF 498 CNS = test system: XF 498 CNS
SN12C renal = test system: SN12C renal
M19-MEL melanoma = test system: M19-MEL melanoma
SW-620 colon = test system: SW-620 colon
SR leukemia = test system: SR leukemia
MALME-3M melanoma = test system: MALME-3M melanoma
TK-10 renal = test system: TK-10 renal
SK-MEL-28 melanoma = test system: SK-MEL-28 melanoma
SF-268 CNS = test system: SF-268 CNS
COLO 205 colon = test system: COLO 205 colon
ACHN renal = test system: ACHN renal
HL-60(TB) leukemia = test system: HL-60(TB) leukemia
OVCAR-4 ovarian = test system: OVCAR-4 ovarian
SNB-19 CNS = test system: SNB-19 CNS
DMS 273 small cell lung = test system: DMS 273 small cell lung
UACC-62 melanoma = test system: UACC-62 melanoma
HT29 colon = test system: HT29 colon
SK-MEL-2 melanoma = test system: SK-MEL-2 melanoma
NCI-H23 lung = test system: NCI-H23 lung
786-0 renal = test system: 786-0 renal
OVCAR-8 ovarian = test system: OVCAR-8 ovarian
UO-31 renal = test system: UO-31 renal
NCI-H460 lung = test system: NCI-H460 lung
HOP-18 NSCLC = test system: HOP-18 NSCLC
SNB-75 CNS = test system: SNB-75 CNS
DMS 114 small cell lung = test system: DMS 114 small cell lung
K-562 leukemia = test system: K-562 leukemia
HCT-116 colon = test system: HCT-116 colon
A549 NSCLC = test system: A549 NSCLC
UACC-257 melanoma = test system: UACC-257 melanoma
SF-295 CNS = test system: SF-295 CNS
CCRF-CEM leukemia = test system: CCRF-CEM leukemia
RPMI-8226 leukemia = test system: RPMI-8226 leukemia
SK-OV-3 ovarian = test system: SK-OV-3 ovarian
LXFL 529 NSCLC = test system: LXFL 529 NSCLC
KM20L2 colon = test system: KM20L2 colon
SK-MEL-5 melanoma = test system: SK-MEL-5 melanoma
LOX IMVI melanoma = test system: LOX IMVI melanoma
NCI-H522 lung = test system: NCI-H522 lung
KM12 colon = test system: KM12 colon
NCI-H226 lung = test system: NCI-H226 lung
SNB-78 CNS = test system: SNB-78 CNS
HOP-62 NSCLC = test system: HOP-62 NSCLC
EKVX NSCLC = test system: EKVX NSCLC
DLD-1 colon = test system: DLD-1 colon
HCC-2998 colon = test system: HCC-2998 colon
A498 renal = test system: A498 renal
OVCAR-3 ovarian = test system: OVCAR-3 ovarian
CAKI-1 renal = test system: CAKI-1 renal
OVCAR-5 ovarian = test system: OVCAR-5 ovarian
SF-539 CNS = test system: SF-539 CNS

Measured: TGI

OC12CCC3(OC4CCCCO4)c4ccccc4C3C1c1ccccc12 (configuration not stated)
not listed: DLD-1 colon | HCC-2998 colon | A498 renal | OVCAR-3 ovarian | CAKI-1 renal | OVCAR-5 ovarian | SF-539 CNS
> 100 µM: all other assays above

Cc1cc(NCCCCCCCNc2cc(C)nc3cc(N)ccc23)c2ccc(N)cc2n1
78.4 µM: NCI-H226 lung
23.9 µM: HL-60(TB) leukemia
26.1 µM: K-562 leukemia
64.9 µM: CCRF-CEM leukemia
45.1 µM: KM12 colon
66.8 µM: SR leukemia
45.4 µM: LOX IMVI melanoma
29.3 µM: COLO 205 colon
81.5 µM: NCI-H522 lung
32 µM: DMS 114 small cell lung
66.2 µM: XF 498 CNS
not listed: SW-620 colon | DMS 273 small cell lung | HOP-18 NSCLC
> 100 µM: all other assays above
